# Results as given in ChEMBL document CHEMBL1201862, “PubChem BioAssay data set” (2004).
# Activity calls are given as the source filed them.
# Assays:
# H4 = assay: Luminescence Cell-Based Dose Response HTS to Identify Activators of 5'UTR Stem-Loop Driven Prion Protein mRNA Translation in H4 Neuroglioblastoma Cells. [Related pubchem assays: 1829 (Project Summary), 1814 (Primary HTS)]; type: functional; settings: Homo sapiens
# [1] = Luminescence Cell-Based Dose Response HTS to Identify Activators of Luciferase Translation or Activity in H4 […] Cells. [Related pubchem assays: 1829 (Project Summary), 1814 (Primary HTS)]; type: functional
# [2] = Luminescence Cell-Based Dose Confirmation HTS to Identify Activators of 5'UTR Stem-Loop Driven Alpha-Synuclein mRNA Translation in H4 Neuroglioblastoma Cells. [Related pubchem assays: 1829 (Project Summary), 1814 (Primary HTS)]; type: functional
# [3] = biological target: T1, Corticotropin-releasing factor receptor 2/Corticotropin-releasing factor-binding protein (Homo sapiens, UniProt P24387+Q13324); assay: Dose Response confirmation of uHTS hits for small molecule antagonists of the CRF-binding protein and CRF-R2 receptor complex.; type: functional; settings: read-out: IC50_Mean
# T1 sequence (Q13324 whole entry): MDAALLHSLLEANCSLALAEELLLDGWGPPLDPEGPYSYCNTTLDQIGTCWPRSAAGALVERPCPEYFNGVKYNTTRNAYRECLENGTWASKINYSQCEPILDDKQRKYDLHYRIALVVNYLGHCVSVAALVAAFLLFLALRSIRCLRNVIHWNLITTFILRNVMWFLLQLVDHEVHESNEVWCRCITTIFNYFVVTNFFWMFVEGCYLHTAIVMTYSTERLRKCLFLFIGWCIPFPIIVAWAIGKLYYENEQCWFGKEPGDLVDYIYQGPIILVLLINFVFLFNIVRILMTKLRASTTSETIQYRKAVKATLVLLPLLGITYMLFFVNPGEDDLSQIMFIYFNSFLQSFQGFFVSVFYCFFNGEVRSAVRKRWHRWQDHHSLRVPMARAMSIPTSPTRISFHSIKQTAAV
# T1 sequence (P24387 whole entry): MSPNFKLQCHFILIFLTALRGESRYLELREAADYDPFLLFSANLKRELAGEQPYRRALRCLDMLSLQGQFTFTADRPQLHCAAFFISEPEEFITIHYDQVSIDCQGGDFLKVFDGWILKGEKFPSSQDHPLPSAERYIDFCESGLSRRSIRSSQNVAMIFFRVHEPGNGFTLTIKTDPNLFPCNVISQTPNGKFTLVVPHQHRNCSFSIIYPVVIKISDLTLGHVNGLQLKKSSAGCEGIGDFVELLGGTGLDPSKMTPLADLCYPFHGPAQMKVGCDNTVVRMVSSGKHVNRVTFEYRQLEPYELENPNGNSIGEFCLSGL
# [4] = biological target: Luciferin 4-monooxygenase (Photinus pyralis, UniProt P08659); assay: firefly luciferase enzyme inhibitors, dose response, biochemical, luminescence (AID 1891)
# [5] = Luminescence Cell-Based Dose Confirmation HTS to Identify Inhibitors of Platelet Dense Granule Release. [Related pubchem assays: 1663 (Primary HTS), 1678 (Summary of Project)]; type: functional
# [6] = biological target: T1, Corticotropin-releasing factor receptor 2/Corticotropin-releasing factor-binding protein; assay: activators of CRF receptor 2 with binding protein – uHTS hits, confirmation (AID 602473); type: functional; settings: read-out: EC50_Mean
# [7] = Shn3 3'UTR reporter inhibitors, dose response, cell-based, Clone20 osteoblasts, firefly luciferase, cherry-picked (AID 624132); type: functional;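 further: firefly luciferase luminescence from reporter carrying the Shn3 3'UTR in osteoblasts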
# [8] = control 3'UTR Renilla luciferase suppression, dose response, counter-screen for Shn3 inhibitor project, cell-based, Clone20-Shn3RL, cherry-picked (AID 624133); type: functional
# [9] = growth suppression of PTEN-null colon cells, dose response, cell-based, HCT116 PTEN knockout (AID 1047); type: functional;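 further: HCT116 colon tumor cells with PTEN knocked out; cells exposed to compound for 60 hours before readout; potency for loss of cell viability measured by luminescence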
# [10] = growth suppression of beta-catenin-knockout colon cells, dose response, cell-based, HCT116, human colon tumor (AID 1045); type: functional;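 further: HCT116 colon tumor cells with beta catenin knocked out; cells exposed to compound for 60 hours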
# [11] = biological target: T2, Rac GTPase-activating protein 1 (Homo sapiens, UniProt Q9H0H5); assay: MgcRacGAP GTPase-activating activity inhibitors, confirmation, biochemical, ADP Hunter fluorescence, primary and confirmatory (AID 624330); type: functional
# T2 sequence (Q9H0H5 whole entry): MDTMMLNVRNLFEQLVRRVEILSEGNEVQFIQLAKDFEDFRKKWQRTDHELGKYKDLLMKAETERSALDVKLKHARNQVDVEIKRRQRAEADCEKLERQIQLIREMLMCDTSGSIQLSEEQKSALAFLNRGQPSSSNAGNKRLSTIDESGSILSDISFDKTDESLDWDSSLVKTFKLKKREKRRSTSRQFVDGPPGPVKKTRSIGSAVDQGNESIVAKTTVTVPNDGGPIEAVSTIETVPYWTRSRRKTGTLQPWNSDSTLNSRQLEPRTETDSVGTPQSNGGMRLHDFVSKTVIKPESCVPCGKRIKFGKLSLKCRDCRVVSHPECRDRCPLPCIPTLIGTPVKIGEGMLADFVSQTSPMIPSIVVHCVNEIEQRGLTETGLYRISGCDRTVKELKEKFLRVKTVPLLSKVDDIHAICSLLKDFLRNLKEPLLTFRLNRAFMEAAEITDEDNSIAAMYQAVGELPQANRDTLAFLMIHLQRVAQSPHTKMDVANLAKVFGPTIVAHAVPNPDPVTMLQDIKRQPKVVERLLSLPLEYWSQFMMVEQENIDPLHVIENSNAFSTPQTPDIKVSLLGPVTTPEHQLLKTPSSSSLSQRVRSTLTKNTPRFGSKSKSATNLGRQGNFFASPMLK
# Protein skinhead-1 = biological target: T3, Protein skinhead-1 (Caenorhabditis elegans, UniProt P34707); type: functional
# T3 sequence (P34707 whole entry): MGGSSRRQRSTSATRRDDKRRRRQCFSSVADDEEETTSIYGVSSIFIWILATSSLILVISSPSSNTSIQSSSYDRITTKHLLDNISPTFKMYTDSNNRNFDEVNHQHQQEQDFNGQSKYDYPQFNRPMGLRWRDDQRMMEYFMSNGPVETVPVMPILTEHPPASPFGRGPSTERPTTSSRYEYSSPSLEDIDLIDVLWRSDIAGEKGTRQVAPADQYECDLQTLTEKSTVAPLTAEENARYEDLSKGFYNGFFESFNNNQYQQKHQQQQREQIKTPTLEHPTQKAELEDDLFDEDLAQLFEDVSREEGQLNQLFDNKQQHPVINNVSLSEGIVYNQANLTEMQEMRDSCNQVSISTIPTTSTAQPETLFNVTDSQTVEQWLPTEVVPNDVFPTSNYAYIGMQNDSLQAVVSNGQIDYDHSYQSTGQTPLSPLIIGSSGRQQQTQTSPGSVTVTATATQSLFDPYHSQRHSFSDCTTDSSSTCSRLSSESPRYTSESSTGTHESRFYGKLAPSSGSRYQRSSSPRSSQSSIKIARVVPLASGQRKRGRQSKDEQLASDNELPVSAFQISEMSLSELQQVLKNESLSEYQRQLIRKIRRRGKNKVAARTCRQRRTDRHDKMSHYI
# [12] = MC4R antagonists, dose response, counter-screen for LGR2 antagonist project, cell-based, plate reader, cherry pick (AID 743444); type: functional;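 further: transfected HEK 293 cells stimulated with alpha-MSH peptide; potency of inhibitors of the alpha-MSH evoked signal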
# [13] = LGR2 antagonists, dose response, cell-based, HEK293, CRE-luciferase reporter, cherry pick, set 2 (AID 743343); type: functional;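 further: transfected cells were stimulated with diluted bursicon conditioned medium after compound addition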
# Luciferin 4-monooxygenase, sequence (P08659 whole entry): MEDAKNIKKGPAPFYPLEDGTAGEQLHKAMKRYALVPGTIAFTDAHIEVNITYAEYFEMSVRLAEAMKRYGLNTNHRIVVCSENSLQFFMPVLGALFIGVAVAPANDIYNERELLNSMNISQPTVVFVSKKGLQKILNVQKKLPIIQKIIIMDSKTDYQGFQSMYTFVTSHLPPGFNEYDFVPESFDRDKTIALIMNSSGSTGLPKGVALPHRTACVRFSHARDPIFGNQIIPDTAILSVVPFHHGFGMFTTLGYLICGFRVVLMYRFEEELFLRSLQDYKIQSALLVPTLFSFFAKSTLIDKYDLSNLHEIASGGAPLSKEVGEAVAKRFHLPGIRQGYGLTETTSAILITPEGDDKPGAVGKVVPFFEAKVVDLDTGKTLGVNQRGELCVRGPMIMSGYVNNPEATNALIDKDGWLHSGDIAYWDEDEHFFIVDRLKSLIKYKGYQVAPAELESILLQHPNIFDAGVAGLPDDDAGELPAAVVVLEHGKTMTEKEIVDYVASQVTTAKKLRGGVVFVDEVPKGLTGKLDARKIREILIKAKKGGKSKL
compound,measurement,setting,value
NS(=O)(=O)c1cc2c(cc1Cl)NC(C1C[C@H]3C=C[C@@H]1C3)NS2(=O)=O (stereo partly specified),EC50,H4,> 120 µM (not active)
same,EC50,[1],> 120 µM (not active)
same,EC50,[2],> 120 µM (not active)
COc1cc(CNc2ccccc2SC)ccc1O,IC50,[3],> 47.1 µM (inactive)
same,EC50,[4],> 112 µM (not active)
same,EC50,[5],> 112 µM (not active)
same,EC50,[6],> 53 µM (inactive)
COc1cccc(C2CCCN2Cc2nc(-c3cnccn3)no2)c1 (stereo unspecified),IC50,[3],> 47.1 µM (inactive)
same,EC50,[6],> 53 µM (inactive)
CC(C)CCNC(=O)c1cc2c(O)nc3ccccc3c2s1,AC50,[7],41.5 µM (active)
same,AC50,[8],18.4 µM (active)
C=C(C)CN1C(=O)C(O)(CC(=O)c2ccc3c(c2)OCCO3)c2ccccc21 (stereo unspecified),EC50,[9],22.1 µM (active)
same,EC50,[10],22.7 µM (active)
Cc1ccc(CCNC(=O)C2CCC(=O)N2C2CCCC2)cc1 (stereo unspecified),IC50,[3],> 47.1 µM (inactive)
same,EC50,[6],> 53 µM (inactive)
Cc1cc(C)c(OCC(O)CN2CCN(C(=O)c3ccccc3)CC2)c(C)c1 (stereo unspecified),IC50,[11],139 µM (active)
CCc1cc(SC#N)cc(CC)c1NC(=O)CCl,EC50,[9],8.97 µM (active)
same,EC50,[10],8.43 µM (active)
COc1ccc(N2CC2c2ccncc2)cc1 (stereo unspecified),IC50,[11],144 µM (active)
COc1ccc(C2=NN(CN3C(=O)C(=O)c4ccccc43)C(c3ccc(OC)cc3)C2)cc1 (stereo unspecified),EC50,H4,0.112 µM (active)
same,EC50,[2],14.6 µM (active)
COc1ccc2cc(C(=O)N3CCN(C)CC3)[nH]c2c1,EC50,H4,> 120 µM (not active)
same,EC50,[1],9.45 µM (active)
same,EC50,[2],13.3 µM (active)
Brc1ccc(-c2cn3ccccc3n2)s1,IC50,Protein skinhead-1,12.7 µM (active)
COc1cc2nc(C3CC3)n(NC(=O)c3ccc(Cl)cc3)c(=O)c2cc1OC,IC50,Protein skinhead-1,> 100 µM (inactive)
CN(C)c1ccc(C2NC(=O)c3ccccc3N2)cc1 (stereo unspecified),AC50,[12],9.95 µM (active)
same,AC50,[13],7.27 µM (active)
O=C(Nc1ccccc1SCC1CSc2nc3ccccc3c(=O)n21)c1ccccc1 (stereo unspecified),IC50,[3],> 47.1 µM (inactive)
same,EC50,[6],> 53 µM (inactive)
COc1ccc(NC2CCCN(C(=O)CN3CCOC3=O)C2)cc1 (stereo unspecified),IC50,[11],109 µM (active)
